One test deals with B16F10 melanoma cells. Description: Lysosomal destabilization, FITC-conjugated dextran fluorescence. The format is cell-based, mouse. The text has this: Emerging evidence argues that both classic apoptosis pathways and lysosomal death pathways must be suppressed for effective development and progression of cancer. Tumor invasion and metastasis are associated with altered lysosomal trafficking and increased expression of the lysosomal proteases termed cathepsins. […] Normal cells respond to death stimuli by undergoing caspase-dependent apoptosis, the best characterized form of programmed cell death. In contrast, cancer cells frequently escape spontaneous and therapy-induced caspase activation due to acquired mutations in the apoptotic machinery. Apoptosis-resistant cancer cells are, however, not completely resistant to cell death, but can die via alternative cell death pathways often involving non-caspase proteases such as lysosomal cathepsins. Therefore, development of novel anticancer drugs that can trigger alternative death pathways that are independent of commonly mutated apoptosis-regulating genes is of great importance. […] Lysosomal destabilization could be followed by measuring the fluorescence intensity of the pH sensitive FITC-conjugated dextran. Lysosomal pH was determined by allowing the B16F10 melanoma cells to endocytose different amount of FITC-conjugated dextran (40 kDa) (from 10 mg/ml stock) for 24 h. […] Fluorescence was measured by plate reader using an excitation and emission wavelengths of 485 nm and 538 nm respectively.

The test system of the next test is Hsp27. Description: Other in vitro effects, Hsp27 (Table 3). The arrangement: key: +: co-inducing activity; −: silencing activity; 0: with the experimental methods applied no other HSP modulating effects could be identified. The test is classed as cell-based. As to the method: Reporter plasmids, containing the Hsp70 and/or Hsp25 promoter conjugated to either YFP or GFP (yellow or green fluorescent protein), were stably transfected into the cells and the expression of YFP or GFP was followed by flow cytometry. Cells were either kept at 37° C. or exposed to heat shock at 42° C. for 1 hour followed by a 16 hour recovery period at 37° C. in the presence or absence of different concentrations of the test compound. After recovery the expression of YFP or GFP which is in straight correlation with the promoter activity of Hsp70 or Hsp27 genes was followed by measuring the fluorescence intensity of the cells by flow cytometry. Fluorescence intensity is in straight correlation with the amount of fluorescent protein (GFP or YFP) produced under the control of hsp promoter. The mean fluorescence intensity of YFP or GFP produced is shown as “Hsp promoter activity”.

The subject of test [1] is B6SJL-Tg(SOD1*G93A)1Gur/J mice. Description: Lifespan of G93A ALS mouse strain. The format is in vivo. An excerpt: Amyotrophic lateral sclerosis (ALS) is a fatal neurodegenerative disease, caused by the death of motor neurons mainly in the spinal cord. The main form of familiar (genetic or inherited) ALS is caused by the mutation of superoxide dismutase 1 (SOD1) gene, which results in […] amyloid-like aggregations and progressive neuronal degenerations. […] The “golden standard” of preclinical ALS drug tests is the use of a specific transgenic mouse strain, which harbors high-copy number of human mutated SOD1 gene, having a mutation of G93A.
The effect of Ex. 23 was investigated on lifespan of G93A ALS mouse strain. A total of 33 transgenic female mice (B6SJL-Tg(SOD1*G93A)1Gur/J) were bred from 4 breeding pairs. The breeding pairs were purchased from the Jackson Laboratory (jax.org). The mice were individually housed in an IVC rack. Standard food pellets and water was available ad libidum. Body weight was monitored daily. The compound Ex. 23 was freshly dissolved in saline every day, and was administered daily intraperitoneally at the onset of symptoms in 10 mg/bwkg. Symptom onset was determined according to ALS-TDI neurological score. Mice treated with Ex. 23 lived longer (FIG. 10) than untreated mice (mean survival 143±3 days; n=8 and 132±3 days; n=25, respectively).

Another test deals with SKH-1 hairless mice. Nature of the test: UVB induced skin edema in SKH-1 hairless mice. The test is classed as in vivo, mouse. As for the experimental part: To evaluate the effects of systemic administration of Ex. 23 on UVB induced edema 16 SKH-1 hairless mice were divided into two groups of 8 animals each. Group 1 mice (Control) were exposed to 230 mJ/cm^2 UVB consecutively for 2 days (a total cumulative UVB dose of 460 mJ/cm^2), which evoked edema as described by Athar et al. (Tox. Appl. Pharmacol. 195: 370-378, 2004). Group 2 mice received Ex 23. (10 mg/kg) intraperitoneally 30 min before the first UV treatment. The administration of the compound Ex. 23 was repeated 24 and 48 hours later. UVB-induced skin edema was monitored by measuring the increase in dorsal skin thickness using an ultrasound skin scanner (22 MHz).

Where [2] appears, read: model in which efficacy was shown.

Where a name gives a salt, the structure may show the parent alone.

For `COC(=O)C1=C(CCN(C)C)N(C)C(CCN(C)C)=C(C(=O)OC)C1c1ccc(C(F)(F)F)cc1` [Example 23, Dimethyl 4-(4-trifuoromethylphenyl)-2,6-bis-(2-dimethylaminoethyl)-1-methyl-1,4-dihydropyridine-3,5-dicarboxylate dihydrochloride], the “Other in vitro effects (lysosomes)” value with B16F10 melanoma cells was “lysosome destabilization”. In the test on B16F10 melanoma cells (Ex. 23 5 μM for 6 hours, compared to Siramesine (20 μm), FIG. 9), the “fluorescence intensity of FITC-conjugated dextran (lysosomal pH, lysosomal destabilization)” value is recorded as “significantly higher fluorescence intensity”. The “Other in vitro effects: Hsp27” value with Hsp27 is “Hsp27 0”. Besides, the mean survival in test [1] (10 mg/bwkg daily i.p. from onset of symptoms, n=8, FIG. 10) worked out at 143 ± 3 days. Besides, the values for the In vivo efficacy entry (in test [1] (setting [2]); in the test on SKH-1 hairless mice (setting [2])) were “ALS” and “UVB protection”, respectively. The “UVB induced skin edema (increase in skin thickness)” value in the test with SKH-1 hairless mice (10 mg/kg i.p. 30 min before first UV, repeated 24 and 48 hours later, FIG. 7) is recorded as “substantially protected against edema formation”.

For the origin of these results see patent US10660789B2, “1,4-dihydropyridine derivatives with HSP modulating activity” (Richter Gedeon NYRT., priority 2011, dated 2020).
